The record followed here is US20050032646A1, “Agents for the regulation of gametophytic self-incompatibility and a control method for the breakdown of gametophytic self-incompatibility using the agents” (priority 2002, published 2005).

Test [1] relates to style-specific S RNase of Fuji apple. The test can be described thus: Inhibition of the activity of a style-specific S RNase by the agents. Type of test: biochemical. The following applies: for inhibiting effect for a style-specific S RNase: enzyme assay, result in words; for OD (2.0 mM): optical density at 260 nm (A260), agent 2.0 mM, no treatment 1.10. As to the method:
Inhibition of S RNase activity by an agent of the present invention was measured as follows: The standard solution of 500 μL of 10 mM sodium phosphate (pH 7.0) with an agent (2.0 mM), and 500 μL of torula yeast rRNA (5 mg/mL) was pre-incubated for 10 min at 37° C. To the substrate solution, the 20 μL of the style-specific S RNase (200 ng) of Fuji apple was added, then the solution was incubated for 30 min at 37° C. A fraction of 200 μL was collected and 40 μL of stop buffer (ice-cold 25% HCIO4, 0.75% uranyl acetate) was added, then mixed and centrifuged at 12,000 rpm for 5 min. And 50 μL of the supernatant was diluted with 950 μL of dd H2O, then the solution was centrifuged and measured the optical density at 260 nm (A260) (Singh A. et al., Plant Physilolgy, 96: 61-68,1991).

Another test concerns Hongro apple. Kind of test: Breakdown of the self-incompatibility in Hongro apple (self-pollination rate, field). It counts as in vivo. The following applies: 25 days after the treatment. The protocol:
In the field application experiment, Hongro apple (the Rosaceae) which has a very low self-pollination rate (<5%) was isolated single-genetically by covering up whole plants with a fine-meshed net to exclude any pollinating insects. The agent of the present invention was treated enough to get-wet flowers at various concentrations with a micro-spray at 9:00-11:00 AM. The target of the agent was the first-blooming primary apple flower. The self-pollination rate was investigated 25 days after the treatment and compared with no treatment and artificial cross-pollination.

Where only a bound is given, the exact number is not on record here.

On to `O=S(=O)([O-])[O-].[Ca+2]` [CaSO4, reference compound], for which the “inhibiting effect for a style-specific S RNase” value (“inhibiting effect” below) in test [1] is “didn't show any positive inhibiting effect”.

As for `COCCOCC(=O)[O-].COCCOCC(=O)[O-].[Cu+2]` [Cu(II) 2-(2-methoxyethoxy) acetate], the self-pollination rate is listed as over 10% in the test on Hongro apple (concentration 0.01 mM); over 30% in the test on Hongro apple (concentration 0.03 mM); over 50% with Hongro apple (concentration 0.10 mM); over 50% in the test on Hongro apple (concentration 0.30 mM); over 50% in the test on Hongro apple (concentration 1.0 mM).

Consider `COCCOC(C)C(=O)[O-].COCCOC(C)C(=O)[O-].[Cu+2]` (stereo not shown) [Cu(II) 2-(2-methoxyethoxy)propionate, Cu(II) 2-(2-methoxyethoxy) propionate], for which, in test [1], the “OD (2.0 mM)” value is listed as 0.64.

In the case of `CCCOCCOCCOCC(=O)[O-].CCCOCCOCCOCC(=O)[O-].[Cu+2]` [Cu(II) 2-(2-propoxyethoxy)ethoxyacetate, Cu(II) 2-(2-propoxyethoxy) ethoxyacetate], the “OD (2.0 mM)” value in test [1] worked out at 0.67.

On to `COC(C)C(=O)[O-].COC(C)C(=O)[O-].[Cu+2]` (stereo not shown) [Cu(II) 2-methoxypropionate], for which the “OD (2.0 mM)” value in test [1] is on record as 0.72.

As to `CCCOC(C)C(=O)[O-].CCCOC(C)C(=O)[O-].[Cu+2]` (stereo not shown) [Cu(II) 2-propoxypropionate], in test [1], the “OD (2.0 mM)” value was 0.72.

Take `COCCOCCOCC(=O)[O-].COCCOCCOCC(=O)[O-].[Cu+2]` [Cu(II) 2-{2-(2-methoxyethoxy)ethoxy} acetate]: the self-pollination rate in the test on Hongro apple (concentration 0.01 mM) is over 10%; with Hongro apple (concentration 0.03 mM), over 20%; with Hongro apple (concentration 0.10 mM), over 50%; with Hongro apple (concentration 0.30 mM), over 50%; in the test with Hongro apple (concentration 1.0 mM) it was over 50%.

For the compound `COCCOCCOC(C)C(=O)[O-].COCCOCCOC(C)C(=O)[O-].[Cu+2]` (stereo not shown) [Cu(II) 2-{2-(2-methoxyethoxy)ethoxy} propionate], the “OD (2.0 mM)” value in test [1] is 0.61.

For `COCCOCCOCCOCC(=O)[O-].COCCOCCOCCOCC(=O)[O-].[Cu+2]` [Cu(II) 2-{2-(2-methoxyethoxy)ethoxy}ethoxyacetate], in test [1], the “OD (2.0 mM)” value is recorded as 0.66.

Consider `CCOCCOc1ccc(S(=O)(=O)[O-])cc1.CCOCCOc1ccc(S(=O)(=O)[O-])cc1.[Cu+2]` [Cu(II) 4-(2-ethoxyethoxy) benzene sulfonate], for which, in test [1], the “OD (2.0 mM)” value came to 0.72.

Regarding `COCCOCCOc1ccc(S(=O)(=O)[O-])cc1.COCCOCCOc1ccc(S(=O)(=O)[O-])cc1.[Cu+2]` [Cu(II) 4-{2-(2-methoxyethoxy)ethoxy} benzene sulfonate], the “OD (2.0 mM)” value in test [1] was 0.68.

Take `CC(=O)[O-].CC(=O)[O-].[Cu+2]` [Cu(II) Acetate]: the “OD (2.0 mM)” value in test [1] turned out to be 0.70.

Turning to `C=CC(=O)[O-].C=CC(=O)[O-].[Cu+2]` [Cu(II) Acrylate], in test [1], the “OD (2.0 mM)” value was 0.69.

As for `O=S(=O)([O-])c1ccccc1.O=S(=O)([O-])c1ccccc1.[Cu+2]` [Cu(II) Benzene sulfonate], the “OD (2.0 mM)” value in test [1] is 0.72.

For `CCCC(=O)[O-].CCCC(=O)[O-].[Cu+2]` [Cu(II) Butyrate], in test [1], the “OD (2.0 mM)” value amounted to 0.69.

For the compound `C[C@H](O)C(=O)[O-].C[C@H](O)C(=O)[O-].[Cu+2]` [Cu(II) L-lactate], in test [1], the “OD (2.0 mM)” value came out at 0.72.

As for `CCOCC(=O)[O-].CCOCC(=O)[O-].[Cu+2]` [Cu(II) ethoxyacetate], in test [1], the “OD (2.0 mM)” value is given as 0.72.

As to `COCC(=O)[O-].COCC(=O)[O-].[Cu+2]` [Cu(II) methoxyacetate], in test [1], the “OD (2.0 mM)” value came to 0.72.

Turning to `Cc1ccc(S(=O)(=O)[O-])cc1.Cc1ccc(S(=O)(=O)[O-])cc1.[Cu+2]` [Cu(II) p-toluene sulfonate], the “OD (2.0 mM)” value in test [1] was found to be 0.72.

`CCCOCC(=O)[O-].CCCOCC(=O)[O-].[Cu+2]` [Cu(II) propoxyacetate]: the “OD (2.0 mM)” value in test [1] came out at 0.73.

As for `O=C[O-].O=C[O-].[Cu+2]` [Cu(Il) Formate], the “OD (2.0 mM)” value in test [1] amounted to 0.74.

Consider `O=S(=O)([O-])[O-].[K+].[K+]` [K2SO4, reference compound], for which the “inhibiting effect” value in test [1] is “didn't show any positive inhibiting effect”.

`O=S(=O)([O-])[O-].[Li+].[Li+]` [Li2SO4, reference compound]: in test [1], the “inhibiting effect” value is “didn't show any positive inhibiting effect”.

Take `O=S(=O)([O-])[O-].[Na+].[Na+]` [Na2SO4, reference compound]: the “inhibiting effect” value in test [1] is “didn't show any positive inhibiting effect”.

As to `COCCOC(C)C(=O)[O-].COCCOC(C)C(=O)[O-].[Zn+2]` (stereo not shown) [Zn(II) 2-(2-methoxyethoxy)propionate, Zn(II) 2-(2-methoxyethoxy) propionate], the “OD (2.0 mM)” value in test [1] worked out at 0.61.

As to `CCCOCCOCCOCC(=O)[O-].CCCOCCOCCOCC(=O)[O-].[Zn+2]` [Zn(II) 2-(2-propoxyethoxy)ethoxyacetate, Zn(II) 2-(2-propoxyethoxy) ethoxyacetate], the “OD (2.0 mM)” value in test [1] was 0.69.

For the compound `CCOCCOCC(=O)[O-].CCOCCOCC(=O)[O-].[Zn+2]` [Zn(II) 2-ethoxy ethoxy acetate], the self-pollination rate was over 5% in the test with Hongro apple (concentration 0.01 mM); over 20% in the test on Hongro apple (concentration 0.03 mM); over 50% in the test with Hongro apple (concentration 0.10 mM); over 60% with Hongro apple (concentration 0.30 mM); over 60% with Hongro apple (concentration 1.0 mM).

As to `COC(C)C(=O)[O-].COC(C)C(=O)[O-].[Zn+2]` (stereo not shown) [Zn(II) 2-methoxypropionate], the “OD (2.0 mM)” value in test [1] was determined as 0.73.

On to `CCCOC(C)C(=O)[O-].CCCOC(C)C(=O)[O-].[Zn+2]` (stereo not shown) [Zn(II) 2-propoxypropionate], for which the “OD (2.0 mM)” value in test [1] stood at 0.72.

On to `COCCOCCOCC(=O)[O-].COCCOCCOCC(=O)[O-].[Zn+2]` [Zn(II) 2-{2-(2-methoxyethoxy)ethoxy} acetate], for which the self-pollination rate in the test on Hongro apple (concentration 0.01 mM) is on record as over 10%; in the test on Hongro apple (concentration 0.03 mM) it was over 30%; with Hongro apple (concentration 0.10 mM) it was over 50%; in the test on Hongro apple (concentration 0.30 mM), over 50%; in the test on Hongro apple (concentration 1.0 mM), over 50%.

`COCCOCCOCCOCC(=O)[O-].COCCOCCOCCOCC(=O)[O-].[Zn+2]` [Zn(II) 2-{2-(2-methoxyethoxy)ethoxy} ethoxyacetate]: the “OD (2.0 mM)” value in test [1] was found to be 0.67.

Regarding `COCCOCCOC(C)C(=O)[O-].COCCOCCOC(C)C(=O)[O-].[Zn+2]` (stereo not shown) [Zn(II) 2-{2-(2-methoxyethoxy)ethoxy}propionate], in test [1], the “OD (2.0 mM)” value turned out to be 0.62.

Turning to `CCOCCOc1ccc(S(=O)(=O)[O-])cc1.CCOCCOc1ccc(S(=O)(=O)[O-])cc1.[Zn+2]` [Zn(II) 4-(2-ethoxyethoxy) benzene sulfonate], the “OD (2.0 mM)” value in test [1] is on record as 0.72.

`COCCOCCOc1ccc(S(=O)(=O)[O-])cc1.COCCOCCOc1ccc(S(=O)(=O)[O-])cc1.[Zn+2]` [Zn(II) 4-{2-(2-methoxyethoxy)ethoxy}benzene sulfonate]: in test [1], the “OD (2.0 mM)” value is on record as 0.68.

On to `CC(=O)[O-].CC(=O)[O-].[Zn+2]` [Zn(II) Acetate], for which, in test [1], the “OD (2.0 mM)” value was determined as 0.71.

Take `O=S(=O)([O-])c1ccccc1.O=S(=O)([O-])c1ccccc1.[Zn+2]` [Zn(II) Benzene sulfonate]: the “OD (2.0 mM)” value in test [1] is listed as 0.74.

As for `CCCC(=O)[O-].CCCC(=O)[O-].[Zn+2]` [Zn(II) Butyrate], the “OD (2.0 mM)” value in test [1] is recorded as 0.68.

Consider `O=C[O-].O=C[O-].[Zn+2]` [Zn(II) Formate], for which the “OD (2.0 mM)” value in test [1] worked out at 0.75.

`C[C@H](O)C(=O)O.C[C@H](O)C(=O)O.[Zn]` [Zn(II) L-lactate]: the “OD (2.0 mM)” value in test [1] came out at 0.73.

Consider `CCOCC(=O)[O-].CCOCC(=O)[O-].[Zn+2]` [Zn(II) ethoxyacetate], for which the “OD (2.0 mM)” value in test [1] came out at 0.73.

On to `C=C(C)C(=O)[O-].C=C(C)C(=O)[O-].[Zn+2]` [Zn(II) metacrylate], for which, in test [1], the “OD (2.0 mM)” value is on record as 0.70.

As for `COCC(=O)[O-].COCC(=O)[O-].[Zn+2]` [Zn(II) methoxyacetate], in test [1], the “OD (2.0 mM)” value was found to be 0.71.

For the compound `Cc1ccc(S(=O)(=O)[O-])cc1.Cc1ccc(S(=O)(=O)[O-])cc1.[Zn+2]` [Zn(II) p-toluene sulfonate], the “OD (2.0 mM)” value in test [1] was 0.72.

Regarding `CCCOCC(=O)[O-].CCCOCC(=O)[O-].[Zn+2]` [Zn(II) propoxyacetate], the “OD (2.0 mM)” value in test [1] amounted to 0.75.

In the case of Ce2SO4 [reference compound], the “inhibiting effect” value in test [1] is “didn't show any positive inhibiting effect”.
